Assays:
[1] = reference [12]; cited from earlier work
3T3-L1 cells [2] = assay: MTT cell viability / proliferation assay; type: cell-based, Mouse
Procedure: The cell viability was evaluated using the MTT assay. 3T3-L1 cells were seeded at a density of 1×10^3 in 96-well plates and incubated for 24h. Compounds 1 and 2 were added in the wells at various concentrations and then incubated at 37 °C. Cells were treated with compound 1 at concentrations of 62.5, 46.875, 31.25, 15.625, 7.81 and 3.9 µM. Cells were treated with compound 2 at concentrations of 62.5, 25.0, 12.5, 6.25 and 3.125 µM. After 24, 48, and 72 h of treatment, MTT solution was added in the wells at a final concentration of 0.5 mg/mL and incubated for 4 h. Cell culture media with MTT was removed and the formazan crystals were dissolved in 100 µl/well isopropanol/HCl (0.4%) and the absorbance was measured at 600 nm using the Infinite® 200 PRO microplate plate reader (Tecan, Zurich, Switzerland).

3T3-L1 adipocytes = assay: Oil red o staining of intracellular lipid accumulation; type: cell-based, Mouse; conditions: differentiation induced in the presence of compound, after 12 days; 1 at 62.5 µM, 2 at 25 µM
Procedure: Mouse 3T3-L1 preadipocytes were maintained in proliferation medium containing DMEM supplemented with 10% (v/v) heat inactivated NBCS and 1% (v/v) penicillin-streptomycin at 37 °C with 5% CO2, humidified atmosphere. Cells were seeded in T-75 flasks at a density of 25×10^4 cells/flask. Cultures never became completely confluent according to the manufacturer's instructions. They were passaged using trypsin-EDTA solution once they reached 70-80% confluency. For differentiation, 3T3-L1 cells were seeded and after 24 h (day 1), cell differentiation was induced by changing the medium to high glucose DMEM containing 10% (v/v) heat inactivated FBS, 1% penicillin-streptomycin, 10 µg/mL insulin, 0.25 µM Dexamethasone (GAP), 0.5 mM IBMX (=differentiation medium I). On day 3, the medium was changed to high glucose DMEM containing 10% FBS, 1% penicillin- streptomycin, and 10 µg/mL insulin (=differentiation medium II). Thereafter, medium was changed every other day switching between differentiation medium I and differentiation medium II until day 12 or 23, when adipocytes were harvested. Control group preadipocytes were seeded at a higher density and harvested after two days. Test compounds were administered either at the initiation of differentiation, or after 15 days of differentiation and with every medium change. To determine the effect on preadipocyte differentiation, cells were seeded and after 24 h they were treated with neorogioldiol. Neorogioldiol was maintained in the culture medium throughout cell differentiation period. To determine the effect of neorogioldiol on mature adipocytes, cells were seeded and induced to differentiate for 14 days, then on day 15 neorogioldiol was added to the differentiation medium for 24 h before cells were harvested. Each compound used was diluted in a 90% carbowax™ 400, 10% (v/v) absolute ethanol solution serving as a control solvent. The final concentration in culture was 0.09% (v/v) carbowax and 0.01% (v/v) ethanol. […]
Oil red o staining was applied to measure lipid accumulation intracellularly. Briefly, after 12 or 23 days of differentiation, the cell culture medium was removed and the 3T3-L1 adipocytes were fixed in 3.7% formaldehyde for 60 min at room temperature. Next, a solution of 0.21% oil red o was filtered using a 0.45 µm filter followed by incubation of the fixed cells for 45 min at room temperature. Excess dye was removed and cells were washed twice with PBS. Fresh PBS was added and the lipid droplets within the differentiated 3T3-L1 cells were visualized and photographed by microscopy. For quantitative analysis, oil red o staining was eluted with 100% isopropanol and the absorbance was measured at 510 nm using the Infinite® 200 PRO microplate plate reader (Tecan, Zurich, Switzerland).

3T3-L1 cells [3] = assay: Quantitative PCR of relative mRNA expression in cell culture samples; type: cell-based, Mouse; conditions: cells differentiated in the presence of compound, 12 days; 1 at 62.5 µM, 2 at 25 µM
Procedure: Mouse 3T3-L1 preadipocytes were maintained in proliferation medium containing DMEM supplemented with 10% (v/v) heat inactivated NBCS and 1% (v/v) penicillin-streptomycin at 37 °C with 5% CO2, humidified atmosphere. Cells were seeded in T-75 flasks at a density of 25×10^4 cells/flask. Cultures never became completely confluent according to the manufacturer's instructions. They were passaged using trypsin-EDTA solution once they reached 70-80% confluency. For differentiation, 3T3-L1 cells were seeded and after 24 h (day 1), cell differentiation was induced by changing the medium to high glucose DMEM containing 10% (v/v) heat inactivated FBS, 1% penicillin-streptomycin, 10 µg/mL insulin, 0.25 µM Dexamethasone (GAP), 0.5 mM IBMX (=differentiation medium I). On day 3, the medium was changed to high glucose DMEM containing 10% FBS, 1% penicillin- streptomycin, and 10 µg/mL insulin (=differentiation medium II). Thereafter, medium was changed every other day switching between differentiation medium I and differentiation medium II until day 12 or 23, when adipocytes were harvested. Control group preadipocytes were seeded at a higher density and harvested after two days. Test compounds were administered either at the initiation of differentiation, or after 15 days of differentiation and with every medium change. To determine the effect on preadipocyte differentiation, cells were seeded and after 24 h they were treated with neorogioldiol. Neorogioldiol was maintained in the culture medium throughout cell differentiation period. To determine the effect of neorogioldiol on mature adipocytes, cells were seeded and induced to differentiate for 14 days, then on day 15 neorogioldiol was added to the differentiation medium for 24 h before cells were harvested. Each compound used was diluted in a 90% carbowax™ 400, 10% (v/v) absolute ethanol solution serving as a control solvent. The final concentration in culture was 0.09% (v/v) carbowax and 0.01% (v/v) ethanol. Compounds were used at the following concentrations: neorogioldiol (1) 62.5µM and neorogioltriol (2) 25µM.
Adipocytes and preadipocytes were harvested using the TRI Reagent®. RNA isolation was carried out according to the manufacturer's instructions. The purified RNA was quantified using the Nanodrop micro-volume spectrophotometer and 500 ng of each sample were used as a template for reverse transcription. cDNA synthesis was performed using the PrimeScriptTM RT reagent Kit (TaKaRa, RR037A) according to manufacturer's instructions. The cDNA produced by the above described procedure was diluted and used as a template for two-step quantitative PCR in a StepOnePlus™ Real-Time PCR System (Applied Biosystems™, 4376600) for a maximum of 40 cycles, as follows: start step 95 °C for 3 min, repeat steps: 95 °C for 15 s and 60 °C for 30 s. Amplification was performed using KAPA SYBR® FAST Universal qPCR kit (Kapa Biosystems, KK4618) according to manufacturer's instructions. Relative quantitative analysis was accomplished calculating fold-changes of gene expression as 2-(ΔΔCt), where ΔCt is (Ct (gene of interest) - Ct (housekeeping gene)). Ppib was used as internal control gene in 3T3L1 cells and in the fat fraction of mice abdominal fat, Rps9 was used as internal control gene in the stromal vascular fraction of mice abdominal fat and Actb was used as internal control gene in liver samples. Table 1. List of primers used for quantitative real-time PCR analysis.

[4] = references [10, 11]; cited from earlier work
NFKB1 = conditions: in vitro model, reference [11]; cited from earlier work
COX2 = conditions: in vitro model, reference [11]; cited from earlier work

Molecule | anti-inflammatory activity [1] | concentrations that did not exhibit cytotoxicity (3T3-L1 cells [2]; concentration chosen for further analyses) [µM] | concentration with cytostatic effects (3T3-L1 cells [2]; three-day incubation (24, 48, 72 h), compound 1: after the first 24 h of treatment) | lipid accumulation (3T3-L1 adipocytes) | Adipoq expression levels (3T3-L1 cells [3]) | Dlkl mRNA expression (3T3-L1 cells [3]) | Lep expression levels (3T3-L1 cells [3]) | Slc2a4 expression levels (3T3-L1 cells [3]) | analgesic properties in vivo [4] | anti-inflammatory properties in vivo [4] | NFKB1 levels (NFKB1) | COX2 levels (COX2)
O^11,15-cyclo-14-bromo-14,15-dihydrorogiol-3,11-diol | potent anti-inflammatory activity | – | – | – | – | – | – | – | – | – | – | –
C=C([C@H]1CC[C@@](C)(O)[C@@H](Br)C1)[C@H]1[C@H](O)[C@@H]2[C@@H](CC[C@@]2(C)O)C1(C)C [neorogioltriol] | – | 25 | above 25 µM | increased lipid accumulation | restricted the increase | did not change | restricted the increase | restricted the increase | potent | potent | reducing | reducing
